Test results taken from patent publication US12527779B2, “Prostaglandin E2 (PGE2) EP4 receptor antagonists” (Domain Therapeutics, priority 2019, dated 2026).
Counter-ions that a name gives are not always drawn.

Each compound was assayed against T1, human EP4 (hEP4) receptor (Homo sapiens, UniProt P35408) (assay: In vitro human EP4 functional antagonist activity using BRET biosensors (cAMP EPAC biosensor, TCS2510 stimulation)). Settings: antagonist activity vs EC60 TCS2510, hEP4 in HEK-293 T cells.
T1 construct: expressed in transfected cells; host or cells: HEK-293 T cells, transient co-transfection with polyethylenimine
Type: cell-based
Procedure, shortened: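 Antagonism measured as inhibition of EC60 TCS2510-induced cAMP BRET signal (EPAC luciferase/GFP sensor) in transiently hEP4-expressing HEK-293T cells, following 5 min compound preincubation and 10 min luminescence recording. Plates equilibrated 1 h at 22 °C in HEPES buffer; 10 concentrations over 4.5 logs, duplicate in two independent experiments, sigmoidal variable-slope IC50.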

T1 sequence (P35408 whole entry): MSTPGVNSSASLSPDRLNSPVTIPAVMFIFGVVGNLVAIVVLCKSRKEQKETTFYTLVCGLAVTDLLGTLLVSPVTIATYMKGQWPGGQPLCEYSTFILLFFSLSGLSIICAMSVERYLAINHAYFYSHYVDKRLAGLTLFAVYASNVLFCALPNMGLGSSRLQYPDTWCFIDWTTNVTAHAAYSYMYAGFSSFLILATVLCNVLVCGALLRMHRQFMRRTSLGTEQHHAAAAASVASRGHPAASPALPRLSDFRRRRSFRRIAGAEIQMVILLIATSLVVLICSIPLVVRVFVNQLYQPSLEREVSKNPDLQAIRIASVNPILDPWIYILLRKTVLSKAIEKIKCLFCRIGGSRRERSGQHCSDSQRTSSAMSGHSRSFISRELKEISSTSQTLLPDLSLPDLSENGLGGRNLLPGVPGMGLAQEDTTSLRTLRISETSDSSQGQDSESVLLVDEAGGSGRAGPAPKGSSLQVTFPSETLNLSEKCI

`C[C@H](NC(=O)C1(N2CC[C@@H](Oc3cccc(C(F)(F)F)c3)C2)CCOCC1)c1cccc(F)c1` [Example 188, N—((S)-1-(3-Fluorophenyl)ethyl)-4-((R)-3-(3-(trifluoromethyl)phenoxy)pyrrolidin-1-yl)tetrahydro-2H-pyran-4-carboxamide, hydrochloride] and `C[C@H](NC(=O)C1(N2CC[C@@H](Oc3cccc(C(F)(F)F)c3)C2)CCOCC1)c1cccc(Cl)c1` [Example 191, N—((S)-1-(3-Chlorophenyl)ethyl)-4-((R)-3-(3-(trifluoromethyl)phenoxy)pyrrolidin-1-yl)tetrahydro-2H-pyran-4-carboxamide, hydrochloride] cannot be ordered by IC50: < 1000 nM for the first, < 1000 nM for the second.

`C[C@H](NC(=O)C1(N2CC[C@@H](Oc3cccc(C(F)(F)F)c3)C2)CCOCC1)c1ccccc1F` [Example 189, N—((S)-1-(2-Fluorophenyl)ethyl)-4-((R)-3-(3-(trifluoromethyl)phenoxy)pyrrolidin-1-yl)tetrahydro-2H-pyran-4-carboxamide, hydrochloride] and `C[C@H](NC(=O)C1(N2CC[C@@H](Oc3cccc(C(F)(F)F)c3)C2)CCOCC1)c1ccccc1Cl` [Example 192, N—((S)-1-(2-Chlorophenyl)ethyl)-4-((R)-3-(3-(trifluoromethyl)phenoxy)pyrrolidin-1-yl)tetrahydro-2H-pyran-4-carboxamide, hydrochloride] cannot be ordered by IC50: < 1000 nM for the first, < 1000 nM for the second.

`C[C@H](NC(=O)C1(N2CC[C@@H](Oc3cccc(C(F)(F)F)c3)C2)CCOCC1)c1ccc(Br)cc1` [Example 190, N—((S)-1-(4-Bromophenyl)ethyl)-4-((R)-3-(3-(trifluoromethyl)phenoxy)pyrrolidin-1-yl)tetrahydro-2H-pyran-4-carboxamide, hydrochloride] and `Cc1ccc([C@H](C)NC(=O)C2(N3CC[C@@H](Oc4cccc(C(F)(F)F)c4)C3)CCOCC2)cc1` [Example 193, N—((S)-1-(4-Methylphenyl)ethyl)-4-((R)-3-(3-(trifluoromethyl)phenoxy)pyrrolidin-1-yl)tetrahydro-2H-pyran-4-carboxamide, hydrochloride] cannot be ordered by IC50: < 1000 nM for the first, < 1000 nM for the second.

`Cc1cccc([C@H](C)NC(=O)C2(N3CC[C@@H](Oc4cccc(C(F)(F)F)c4)C3)CCOCC2)c1` [Example 194, N—((S)-1-(3-Methylphenyl)ethyl)-4-((R)-3-(3-(trifluoromethyl)phenoxy)pyrrolidin-1-yl)tetrahydro-2H-pyran-4-carboxamide, hydrochloride] and `COc1cccc([C@H](C)NC(=O)C2(N3CC[C@@H](Oc4cccc(C(F)(F)F)c4)C3)CCOCC2)c1` [Example 196, N—((S)-1-(3-Methoxyphenyl)ethyl)-4-((R)-3-(3-(trifluoromethyl)phenoxy)pyrrolidin-1-yl)tetrahydro-2H-pyran-4-carboxamide, hydrochloride] cannot be ordered by IC50: < 1000 nM for the first, < 1000 nM for the second.

`COc1ccc([C@H](C)NC(=O)C2(N3CC[C@@H](Oc4cccc(C(F)(F)F)c4)C3)CCOCC2)cc1` [Example 195, N—((S)-1-(4-Methoxyphenyl)ethyl)-4-((R)-3-(3-(trifluoromethyl)phenoxy)pyrrolidin-1-yl)tetrahydro-2H-pyran-4-carboxamide, hydrochloride] and `COc1ccccc1[C@H](C)NC(=O)C1(N2CC[C@@H](Oc3cccc(C(F)(F)F)c3)C2)CCOCC1` [Example 197, N—((S)-1-(2-Methoxyphenyl)ethyl)-4-((R)-3-(3-(trifluoromethyl)phenoxy)pyrrolidin-1-yl)tetrahydro-2H-pyran-4-carboxamide, hydrochloride] cannot be ordered by IC50: < 100 nM for the first, < 1000 nM for the second.

`Cc1cc(C2(NC(=O)C3(N4CC[C@@H](Oc5cccc(C(F)(F)F)c5)C4)CCOCC3)CC2)ccc1C(=O)O` [Example 198, (R)-2-Methyl-4-(1-(4-(3-(3-(trifluoromethyl)phenoxy)pyrrolidin-1-yl)tetrahydro-2H-pyran-4-carboxamido)cyclopropyl)benzoic acid, hydrochloride] and `O=C(NC[C@H]1CC[C@H](C(=O)O)CC1)C1(N2CC[C@@H](Oc3cccc(C(F)(F)F)c3)C2)CCOCC1` [Example 200, (1R,4R)-4-((4-((R)-3-(3-(Trifluoromethyl)phenoxy)pyrrolidin-1-yl)tetrahydro-2H-pyran-4-carboxamido)methyl)cyclohexane-1-carboxylic acid, hydrochloride] cannot be ordered by IC50: < 100 nM for the first, < 100 nM for the second.

`CC(C)(C(=O)NC[C@H]1CC[C@H](C(=O)O)CC1)N1CC[C@@H](Oc2cccc(C(F)(F)F)c2)C1` [Example 201, (1R,4R)-4-((2-Methyl-2-((R)-3-(3-(trifluoromethyl)phenoxy)pyrrolidin-1-yl)propanamido)methyl)cyclohexane-1-carboxylic acid, hydrochloride] and `C[C@H](NC(=O)C(C)(C)N1CC[C@@H](Oc2cccc(C(F)(F)F)c2)C1)c1ccc(S(C)(=N)=O)cc1` (stereo partly drawn) [Example 205, 2-Methyl-N-((1S)-1-(4-(S-methylsulfonimidoyl)phenyl)ethyl)-2-((R)-3-(3-(trifluoromethyl)phenoxy)pyrrolidin-1-yl)propanamide, hydrochloride] cannot be ordered by IC50: < 100 nM for the first, < 100 nM for the second.

`C[C@H](NC(=O)C(C)(C)N1CC[C@@H](Oc2cccc(C(F)(F)F)c2)C1)c1ccc(S(N)(=O)=O)cc1` [Example 203, 2-Methyl-N—((S)-1-(4-sulfamoylphenyl)ethyl)-2-((R)-3-(3-(trifluoromethyl)phenoxy)pyrrolidin-1-yl)propanamide, hydrochloride] and `C[C@H](NC(=O)C(C)(C)N1CC[C@@H](Oc2cccc(C(F)(F)F)c2)C1)c1ccc(S(C)(=O)=O)cc1` [Example 204, 2-Methyl-N—((S)-1-(4-(methylsulfonyl)phenyl)ethyl)-2-((R)-3-(3-(trifluoromethyl)phenoxy)pyrrolidin-1-yl)propanamide, hydrochloride] cannot be ordered by IC50: < 1000 nM for the first, < 1000 nM for the second.

`C[C@H](NC(=O)C(C)(C)N1CC[C@@H](COc2cccc(Cl)c2)C1)c1ccc(C(=O)O)cc1` [Example 209, 4-((S)-1-(2-((R)-3-((3-Chlorophenoxy)methyl)pyrrolidin-1-yl)-2-methylpropanamido)ethyl)benzoic acid] and `CCC(CC)(C(=O)N[C@@H](C)c1ccc(C(=O)O)cc1)N1CC[C@@H](Oc2cccc(Cl)c2)C1` [Example 210, 4-[(1S)-1-[[2-[(3R)-3-(3-Chlorophenoxy)pyrrolidin-1-yl]-2-ethylbutane-carbonyl]amino]ethyl]benzoic acid, hydrochloride] cannot be ordered by IC50: < 100 nM for the first, < 100 nM for the second.
